Measured values taken from patent publication US20240269143A1, “COMBINATION THERAPY COMPRISING A MAT2A INHIBITOR AND TYPE I PRMT INHIBITOR” (IDEAYA BIOSCIENCES, INC., priority 2021, published 2024).

Key:
[1] = tested on: HCT-116 MTAP-deleted tumors; assay: Anti-tumor efficacy in HCT-116 MTAP-deleted mouse xenograft; assay type: in vivo; settings: Day fourteen
Method: (§1) The effect of Compound A and Compound B as single-agent anti-tumor agents and in combination was assessed in the HCT-116 human colon tumor cell line, MTAP isogenic pair (MTAP proficient (WT) or MTAP-deleted). Cells were expanded in DMEM/F12 GlutaMAX (Fisher Scientific, Catalog Number 10-565-018) with 10% fetal bovine serum. These cells were free of mycoplasma and authenticated as HCT-116 by STR profiling. Two and a half million cells in log growth phase were resuspended in Hanks Balanced Salt Solution containing 50% Matrigel and implanted subcutaneously into the flank of each recipient female CB17/lcr-Prkd^scid/lcrlcoCrl mouse. Mice were housed in microisolator cages with corn cob bedding with additional enrichment consisting of sterile nesting material (Innovive) and Bio-huts (Bio-Serv). Water (Innovive) and diet (Teklad Global 19% Protein Extruded Diet 2919, Irradiated) were provided ad libitum. The environment was maintained on a 12-hour light cycle at approximately 68-72° F. and 40-60% relative humidity.
(§2) Tumor Volume (TV) was calculated using the following formula: TV (mm^3)=(width×width×length)/2. No dose holidays were provided for during the study and all mice were euthanized following the final dose on Day fourteen. Tumor growth inhibition (TGI) was calculated by [(TV controlfinal−TV treatedfinal)/(TV controlfinal−TV controlinitial)×100]. TV was analyzed for statistical significance utilizing GraphPad Prism version 9.1.0. Repeated Measures 2-Way ANOVA with Tukey's Multiple Comparisons was utilized, and P-values were presented from the final tumor measurement and were considered statistically significant if less than 0.05.
(§3) Mean tumor volume at dosing start was approximately 128-145 mm^3, with seven mice randomized to each treatment group. The study design was identical for both models, with the study consisting of six treatment groups. Mice were dosed orally, once per day, with Vehicle, Compound A at 5 mg/kg, Compound B at 9.375 or 18.75 mg/kg, or Compound A at 5 mg/kg and Compound B at 9.375 mg/kg, or Compound A at 5 mg/kg and Compound B at 18.75 mg/kg. The doses were staggered with Compound A given first and Compound B administered 2 hours later. Likewise, the Vehicle B (for Compound B, Saline) was administered to animals 2 hours later than the Vehicle A (for Compound A, 0.5% 400 cps methylcellulose with 0.5% Tween-80 in sterile water).

HCT-116 MTAP WT tumors = assay: Anti-tumor efficacy in HCT-116 MTAP WT mouse xenograft; assay type: in vivo; settings: Day fourteen
Method: as §1, §2, §3

BxPC-3 tumors = assay: Anti-tumor efficacy in pancreatic xenograft BxPC-3; assay type: in vivo, mouse; settings: Day 28
Method: The BxPC-3 tumor cell line was maintained in vitro as a monolayer culture in RPMI 1640 medium supplemented with 10% fetal bovine serum at 37° C. in an atmosphere of 5% CO2 in air. The tumor cells were routinely sub-cultured, not to exceed 4-5 passages. The cells growing in an exponential growth phase were harvested and counted for tumor inoculation. Each mouse was inoculated subcutaneously on the right flank with 5 million BxPC-3 tumor cells in 0.1 mL RPMI 1640 and Matrigel mixture (1:1 ratio) for tumor development.
Tumor Volume (TV) was calculated using the following formula: TV (mm^3)=(width×width×length)/2. No dose holidays were provided for during the study and all mice were euthanized following the final dose on Day 28. Tumor growth inhibition (TGI) was calculated by [(TV controlfinal−TV treatedfinal)/(TV controlfinal−TV controlinitial)×100]. TV was analyzed for statistical significance using GraphPad Prism version 9.1.0. Repeated Measures 2-Way ANOVA with Tukey's Multiple Comparisons was utilized, and P-values were presented from the final tumor measurement and were considered statistically significant if less than 0.05. The treatment started when the mean tumor volume reached about 197 mm^3. Mice were then randomly assigned to respective groups so that the mean starting tumor volume was the same among groups. Mice were dosed orally, once per day, with Vehicle, Compound A at 10 mg/kg, Compound B at 9.375 or 18.75 mg/kg, or Compound A at 10 mg/kg and Compound B at 9.375 mg/kg, or Compound A at 10 mg/kg and Compound B at 18.75 mg/kg. The Doses were staggered with Compound A given first and Compound B administrated 2 hours later. Likewise, the Vehicle B (for Compound B, Saline) was administrated to animals 2 hours later than the Vehicle A (for Compound A, 0.5% 400 cps methylcellulose with 0.5% Tween-80 in sterile water).

[2] = tested on: KP4 pancreatic cancer cell line; assay: 5-day proliferation screening, combination synergy (HSA, Loewe, Bliss); assay type: cell-based; settings: HSA and Loewe models, single agent activity of Compound B
Method: (§4) A 4-day proliferation screening was done in colorectal cancer lines HCT116 and HCT116 MTAP−/− (CRISPR Knock-out), and a 5-day proliferation screening was performed in pancreatic cancer cell lines BxPC3, KP4 and lung cancer line, NCI-H838. The nuclei were fluorescent tagged for all the cell lines. Combinations included a 5-fold titration from 10 uM for MAT2Ai (Compound A) and 5-fold titration from 20 uM for Type1 PRMTi (Compound B). Cells were plated at a seeding density 1000 cells/well in a 96-well format 24h before treatment and treated the following day with an 8×8 double matrix titration (five-fold dilution series) of Compound A (MAT2Ai) and Compound B (Type I PRMTi). Triplicates were run for each data point. Nuclear count was measured at the end point using the IncuCyte S3 Live-Cell Analysis System. Average fluorescence of cells treated with DMSO was set to 100% and the % viable cells were calculated accordingly. Dose response curves for single drug activity and drug-drug synergy for combinations were generated using Combenefit software. Synergy was evaluated using HSA, Loewe, and Bliss models.

[3] = tested on: NCI-H838 lung cancer line; assay: as above; assay type: cell-based; settings: HSA and Loewe models, single agent activity of Compound B
Method: as §4

[4] = Compound A 5 mg/kg orally once per day
[5] = Compound A 10 mg/kg orally once per day
[6] = Compound B 9.375 mg/kg orally once per day
[7] = Compound B 18.75 mg/kg orally once per day

Row | Structure (SMILES) | Final TV (mean) [1, 4] [mm^3] | TGI (tumor growth inhibition) [1, 4] [%] | Final TV (mean) (HCT-116 MTAP WT tumors; [4]) [mm^3] | TGI (tumor growth inhibition) (HCT-116 MTAP WT tumors; [4]) [%] | Final TV (mean) (BxPC-3 tumors; [5]) [mm^3] | TGI (tumor growth inhibition) (BxPC-3 tumors; [5]) [%] | concentration of Compound B above which modest cytotoxicity observed [2] | concentration of Compound B above which modest cytotoxicity observed [3] | Final TV (mean) [1, 6] [mm^3] | TGI (tumor growth inhibition) [1, 6] [%] | Final TV (mean) [1, 7] [mm^3] | TGI (tumor growth inhibition) [1, 7] [%] | Final TV (mean) (HCT-116 MTAP WT tumors; [6]) [mm^3] | TGI (tumor growth inhibition) (HCT-116 MTAP WT tumors; [6]) [%] | Final TV (mean) (HCT-116 MTAP WT tumors; [7]) [mm^3] | TGI (tumor growth inhibition) (HCT-116 MTAP WT tumors; [7]) [%] | Final TV (mean) (BxPC-3 tumors; [6]) [mm^3] | TGI (tumor growth inhibition) (BxPC-3 tumors; [6]) [%] | Final TV (mean) (BxPC-3 tumors; [7]) [mm^3] | TGI (tumor growth inhibition) (BxPC-3 tumors; [7]) [%]
1 | Nc1nc(=O)n(-c2ccccc2Cl)c2nc(C(F)(F)F)ccc12 [Compound A] | 232 | 68 | 539 | 56 | 686 | 37 |  |  |  |  |  |  |  |  |  |  |  |  |  | 
2 | CCOCC1(COCC)CCC(c2n[nH]cc2CN(C)CCNC)CC1 [Compound B] |  |  |  |  |  |  | above 0.8 uM | above 0.16 uM | 441 | 4 | 357 | 30 | 928 | 13 | 907 | 16 | 638 | 44 | 415 | 72
